Results: US8846951B2 (AbbVie Inc., priority 2009, dated 2014)
Entries after “also recorded” stand apart in the source; their conditions may differ.

What was measured:
[1] = target: T1, h-5-HT6 receptor (Homo sapiens, UniProt P50406); experiment: Human 5-HT6 receptor radioligand binding assay (HEK293 membranes, [3H]-LSD); conditions: HEK293 membranes expressing h-5-HT6 receptor, 1 nM [3H]-LSD; geometrical mean; read-out: Ki (5-HT6 Agonist Site Radioligand Binding)
T1 construct: expressed in transfected cells; host or cells: HEK293 cells (membranes)
Protocol: (v) Human 5-HT6 Receptor Radioligand Binding Assay
Preparation of Membranes by Ultrasonic Treatment and Differential Centrifugation
Cells from stable clonal cell lines expressing the corresponding receptor (5-HT6) were washed with PBS (without Ca^++, Mg^++) and harvested in PBS with 0.02% EDTA. The cells were collected by centrifugation at 500 g for 10 minutes at 4° C., washed with PBS and centrifuged (500 g, 10 minutes at 4° C.). The pellets were stored at −80° C. until use. For membrane preparation, the thawed cell pellet was resuspended in ice-cold sucrose buffer (0.25 M sucrose, 10 mM HEPES (pH 7.4), 1 mM phenylmethylsulfonyl fluoride (PMSF) in DMSO, 5 μg/ml Pepstatin-A, 3 mM EDTA, 0.025% Bacitracin) and homogenized with a Branson Sonifier W-250 (Settings: Timer 4; Output Control 3; Duty Cycle constant; 2 to 3 cycles). Cell disruption was checked with the aid of a microscope. Remaining unbroken cells were pelleted at 1,000 g for 10 minutes at 4° C. The sucrose buffer supernatant was then centrifuged at 60,000 g for 1 hour at 4° C. (Beckman Ultracentrifuge XL 80). The pellet was resuspended in 30 mL of ice-cold Tris buffer (20 mM TRIS (pH 7.4), 5 μg/mL Pepstatin A, 0.1 mM PMSF, 3 mM EDTA) by pipetting through a 10 mL serological pipette and centrifuged for 1 hour at 4° C. at 60,000 g. A final resuspension was performed in a small volume of ice-cold Tris buffer (see above) by pressing through a serological pipette followed by ultrasonic treatment with a Branson Sonifier W-250 (Settings: Timer 1; Output Control 3; Duty Cycle constant; 1 cycle). Protein concentration was determined (BCA-Kit; Pierce) and aliquots stored at −80° C. or in liquid nitrogen for long-term storage.
Receptor Binding Experiments
All receptor binding experiments were carried out in the corresponding assay buffer in a total volume of 200 μL in the presence of various concentrations of test compound (10^−5 M to 10^−9 M, tenfold serial dilution, duplicate determinations). The assays were terminated by filtration on polyethylenimine (PEI 0.1% or 0.3%) presoaked Packard Unifilter Plates (GF/C or GF/B) with a Tomtec MachIII U 96 well-plate harvester. After the plates had been dried for 2 hours at 55° C. in a drying chamber scintillation cocktail (BetaPlate Scint; PerkinElmer) was added. Radioactivity was measured in a Microbeta Trilux two hours after the addition of the scintillation mixture.
5-HT6 Receptor Binding Assay
HEK293 cells stably expressing the h-5-HT6 receptor (NCBI Reference Sequence XM 001435) were cultured in RPMI1640 medium supplemented with 25 mM HEPES, 10% fetal calf serum and 1-2 mM glutamine. The membrane preparation was performed as described above. […] On the day of the assay, the membranes were thawed, diluted in assay buffer (50 mM Tris-HCl, 5 mM CaCl2, 0.1% ascorbic acid, 10 μM pargyline, pH 7.4) to a concentration of 8 μg protein/assay and homogenized by gentle vortexing. […] Non-specific binding was defined with 1 μM methiothepin. The binding reaction was carried out for 3.5 hours at room temperature. During the incubation, the plates were shaken on a plate shaker at 100 rpm and terminated by filtration on Packard Unifilter GF/C (0.1% PEI) plates, followed by 2 wash cycles with ice-cold 50 mM Tris-HCl, 5 mM CaCl2.
Data derived from liquid scintillation counting were analyzed by iterative non-linear regression analysis with the use of the Statistical Analysis System (SAS): a program similar to “LIGAND” as described by Munson and Rodbard (Anal. Biochem. 1980, 107, 220-239). Fitting was performed according to formulae described by Feldman (Anal. Biochem. 1972, 48, 317-338). IC50 and Ki values were expressed as geometrical mean.

[2] = target: T2, 5HT2C receptors (Homo sapiens, UniProt P28335); experiment: Human 5-HT2C functional assay in CHO-K1 cells (96-well, calcium, FLIPR); assay type: cell-based; set-up: expressed in transfected cells; conditions: 5-HT2c agonist activity, CHO-K1 cells stably transfected
T2 sequence (P28335 33-458): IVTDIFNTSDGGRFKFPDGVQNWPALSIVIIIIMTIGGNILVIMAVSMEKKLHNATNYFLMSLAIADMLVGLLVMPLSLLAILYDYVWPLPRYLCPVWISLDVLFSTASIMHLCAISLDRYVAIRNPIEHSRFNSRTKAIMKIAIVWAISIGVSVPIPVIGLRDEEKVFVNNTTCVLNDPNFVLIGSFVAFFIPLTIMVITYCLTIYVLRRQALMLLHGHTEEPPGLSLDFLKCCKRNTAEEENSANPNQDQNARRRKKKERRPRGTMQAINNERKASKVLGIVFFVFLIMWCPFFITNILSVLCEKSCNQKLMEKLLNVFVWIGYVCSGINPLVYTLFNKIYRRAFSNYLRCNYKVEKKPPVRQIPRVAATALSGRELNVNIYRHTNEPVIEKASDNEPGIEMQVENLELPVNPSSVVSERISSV
Protocol: (iv) Human 5-HT2C Functional Assay in CHO-K1 Cells
Functional activity was determined by testing the effect of the compounds on intracellular calcium levels in CHO-K1 cells stably transfected with the human 5-HT2C receptor. Cells were seeded into 96-well plates at 60,000 cells/well and grown overnight in tissue culture medium (UltraCHO™ (Lonza), containing 1% dFCS, 250 μg/mL Zeocin, 400 μg/mL Geneticin) at 37° C. and 5% CO2. Growth medium was replaced by medium without dFCS for overnight incubation. Cells were loaded with a fluorescent calcium-sensitive dye in the presence of probenicid according to the manufacturer's protocol (FLIPR Ca4 Assay kit, Molecular Devices). Serial compound dilutions (final concentrations 10^−10 to 10^−5 M) were added to the cells and the maximum calcium response was determined using a FLIPR instrument (Molecular Devices). Concentration-response curves were fitted using a four-parameter logistic equation (GraphPad Prism). The concentration at which the compound exerts half its maximal effect is named the ‘effective concentration 50’ or ‘EC50’ and is listed in Table 5.

[3] = tested on: AMP- or PCP-induced hyperactivity; experiment: Psychostimulant (AMP or PCP)-induced hyperlocomotion in mice; assay type: in vivo, mouse; conditions: for spontaneous activity: after ip test compound, before psychostimulant; for AMP-induced hyperactivity: test compound ip 30 min before d-amphetamine 2.0 mg/kg sc
Excerpt: (x) Assessment of Effects on Psychostimulant-Induced Hyperlocomotion in Mice
In both humans and experimental animals amphetamine (AMP) profoundly affects motor activity, sensorimotor function, sleep, attention, aggressive and sexual behaviors, learning and memory, operant behaviors, appetite and food intake. In addition, amphetamine induces psychotic reactions in normal individuals and exacerbates symptoms of schizophrenia in patients. In experimental animals several distinct behaviors are considered to be correlates of amphetamine psychosis. For example, amphetamine-induced hyperactivity in rodents is believed to model the psychotic symptoms of schizophrenia. Reversal of these behaviors is used to predict potential antipsychotic activity of drugs in pre-clinical studies.
In humans, phencyclidine (PCP) is known to produce a syndrome of behavioral effects which have many characteristics in common with schizophrenia. Therefore, antagonism of PCP effects might be evidence for antipsychotic efficacy of a compound.
Male NMRI mice (5-week old, Janvier, France) or C57BL/6J mice (6-week old, Janvier, France) were group housed and allowed ad-libitum access to food and water. A 12 hour light/dark cycle was imposed with lights-on period between 0530 and 1730 hours. All testing occurred between 700 and 1300 hours. All procedures were approved by Abbott Institutional Animal Care and Use Committee (USA) or Animal Welfare Officer (Germany) and were conducted in accordance with the National Institutes of Health Guide for Care and Use of Laboratory Animals guidelines and applicable national laws in the facilities accredited by the Association for the Assessment and Accreditation of Laboratory Animal Care.
On the day of experiment, animals were brought from the animal facility into the experimental room and were allowed to acclimatize for at least 30 minutes. Animals were then placed in the test cages for a habituation period of 60 minutes. The animals were then injected ip with the test compound and returned to the test cage. 30 Minutes later the mice were injected with d-amphetamine (2.0 mg/kg, AMP, Sigma, #A5880, sc) or phencyclidine (2.0 mg/kg, PCP, Sigma, #P3029, sc) Sigma, and returned to the test cages for 90 minutes. Each treatment group consisted of 8-10 animals. The data was acquired by Cage rack Photobeam system (SDI, San Diego Instruments, CA). The analyzed data were: fine movements, ambulations and total movements (fine+ambulations). Data was subjected to one- or two-way distribution-free ANOVA followed by Dunnett's and Tukey's post hoc tests.

[4] = target: T3, human serotonin 5-HT2c receptor (Homo sapiens, UniProt P28335); experiment: Human 5-HT2C receptor radioligand binding assay (agonist site, [125I]DOI); conditions: 5-HT2c agonist site; transfected CHO cell membranes; 0.2 nM [125I](±)DOI
T3 construct: expressed in transfected cells; host or cells: CHO cells (membrane homogenates)
T3 sequence (P28335 33-458): T2 sequence (P28335 33-458)
Protocol: (i) Human 5-HT2C Receptor Radioligand Binding Assay
Affinity of compounds for the agonist site of the […], receptor in transfected CHO cells was determined in a radioligand binding assay essentially as described by Bryant, H. U., et al., Life Sciences (1996) 59(15), 1259-1268.

[5] = target: T4, 5HT2B receptors (Homo sapiens, UniProt P41595); experiment: Human 5-HT2B functional high throughput screening assay in CHO-K1 cells (calcium flux); assay type: cell-based; conditions: for Emax: CHO-K1; for EC50: EC50, 5-HT2B agonist activity, CHO-K1 cells, calcium flux
T4 construct: expressed in transfected cells; host or cells: CHO-K1 cells
How it was run: (§1)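 CHO-K1 cells overexpressing human 5-HT2C or 5-HT2B were serum-starved overnight and loaded with Ca4 dye plus 2.5 mM probenecid for 60 min at RT. Calcium flux was read on FLIPR (ex 480/em 530 nm, 25° C) over 3 min after addition of compound, tested from 10 μM in 1:10 steps over 6 points with 0.2% DMSO. EC50 and Emax relative to serotonin came from a 4-parameter logistic fit.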

[6] = target: T2, 5HT2C receptors; experiment: Human 5-HT2C functional assay in 1321N1 cells (intracellular calcium, FLIPR); assay type: cell-based; set-up: expressed in transfected cells; host or cells: 1321N1 cells; conditions: 5-HT2c agonist activity, maximum calcium response
How it was run: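 Intracellular calcium (Fluo-4, FLIPR peak response) was measured in stably transfected human 5-HT2C 1321N1 cells after overnight serum-free culture. Compounds were applied at final 10^−10 to 10^−5 M either alone or together with 10^−9 M serotonin. Half-maximal effect concentration was derived by four-parameter logistic fitting.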

[7] = target: T2, 5HT2C receptors; experiment: Human 5-HT2C functional high throughput screening assay in CHO-K1 cells (calcium flux); assay type: cell-based; set-up: expressed in transfected cells; host or cells: CHO-K1 cells; conditions: for Emax: CHO-K1, 5-HT2C, maximum functional response as percentage relative to the effect of serotonin; for EC50: EC50, 5-HT2C agonist activity, CHO-K1 cells, calcium flux
How it was run: as §1

T4 sequence (P41595 whole entry): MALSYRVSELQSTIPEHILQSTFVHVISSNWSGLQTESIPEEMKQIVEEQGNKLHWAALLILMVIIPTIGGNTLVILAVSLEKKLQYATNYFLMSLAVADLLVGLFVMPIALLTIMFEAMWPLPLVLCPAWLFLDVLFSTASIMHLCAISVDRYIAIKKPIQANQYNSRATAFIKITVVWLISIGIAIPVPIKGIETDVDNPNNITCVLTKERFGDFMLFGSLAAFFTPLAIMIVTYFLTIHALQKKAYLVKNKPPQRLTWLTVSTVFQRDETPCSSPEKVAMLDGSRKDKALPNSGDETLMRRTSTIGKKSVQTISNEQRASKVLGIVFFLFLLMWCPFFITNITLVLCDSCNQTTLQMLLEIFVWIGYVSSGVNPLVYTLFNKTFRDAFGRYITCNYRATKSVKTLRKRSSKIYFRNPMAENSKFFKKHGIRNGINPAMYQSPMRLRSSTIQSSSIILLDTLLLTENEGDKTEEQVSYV
T1 sequence (P50406 whole entry): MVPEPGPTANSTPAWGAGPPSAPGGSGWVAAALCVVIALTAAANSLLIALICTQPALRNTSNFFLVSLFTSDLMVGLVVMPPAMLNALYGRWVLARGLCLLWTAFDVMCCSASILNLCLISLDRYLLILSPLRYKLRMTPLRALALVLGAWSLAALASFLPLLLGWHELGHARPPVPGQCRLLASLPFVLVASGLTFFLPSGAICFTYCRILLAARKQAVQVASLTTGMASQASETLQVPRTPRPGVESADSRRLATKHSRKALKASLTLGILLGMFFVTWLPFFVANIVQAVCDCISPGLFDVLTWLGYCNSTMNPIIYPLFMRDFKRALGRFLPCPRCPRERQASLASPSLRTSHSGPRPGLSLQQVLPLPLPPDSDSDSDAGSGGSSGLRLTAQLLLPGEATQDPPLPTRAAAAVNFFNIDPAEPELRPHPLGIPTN

Row | Ki [1] | EC50 [2] | Compound | spontaneous activity [3] | PCP-induced hyperactivity ([3]; test compound ip 30 min before PCP 2.0 mg/kg sc) | Ki [4] | Emax [5] | EC50 [5] | EC50 [6] | Emax [7] | EC50 [7] | AMP-induced hyperactivity [3]
1 | 14.3 nM | > 1000 nM | COc1ccc(CN2C[C@H]3CN(S(=O)(=O)c4cccc(F)c4)Cc4ccccc4[C@@H]3C2)cc1 (relative stereo) [Example 73, Trans-5-(3-fluorophenylsulfonyl)-2-(4-methoxybenzyl)-1,2,3,3a,4,5,6,10b-octahydrobenzo[c]pyrrolo[3,4-e]azepine] |  |  |  |  |  |  |  |  | 
2 | 9.81 nM | > 10000 nM | O=S(=O)(c1cccc(F)c1)N1Cc2ccccc2[C@@H]2CN(Cc3ccc(F)cc3)C[C@H]2C1 (relative stereo) [Example 74, Trans-2-(4-fluorobenzyl)-5-(3-fluorophenylsulfonyl)-1,2,3,3a,4,5,6,10b-octahydrobenzo[c]pyrrolo[3,4-e]azepine] |  |  |  |  |  |  |  |  | 
3 |  |  | O=C1NC[C@H]2CNC[C@@H]2c2ccccc21 [Example 44, (3aR,10bS)-1,2,3,3a,4,5-Hexahydrobenzo[c]pyrrolo[3,4-e]azepin-6(10bH)-one] | without affecting spontaneous activity | attenuated PCP-induced hyperactivity in mice significantly and in a dose dependent manner; also recorded: attenuating the affect of phencyclidine (PCP) | 9.5 nM | 100% | 500 nM | 3.02 nM | 100% | 1 nM | 
4 |  |  | O=C1NC[C@H]2CNC[C@@H]2c2c(F)cc(F)cc21 [Example 106, (3aR,10bS)-8,10-Difluoro-1,2,3,3a,4,5-hexahydrobenzo[c]pyrrolo[3,4-e]azepin-6(10bH)-one] | without affecting spontaneous activity |  |  | 95% | 100 nM |  | > 120% | 0.4 nM | modestly attenuated AMP-induced hyperactivity in mice in a dose dependent manner; also recorded: attenuating the affect of d-amphetamine (AMP)
5 |  |  | CN1C[C@H]2CNC[C@@H]2c2ccc(F)cc2C1=O [Example 225, (3aR,10bS)-8-Fluoro-5-methyl-1,2,3,3a,4,5-hexahydrobenzo[c]pyrrolo[3,4-e]azepin-6(10bH)-one] | without affecting spontaneous activity |  |  | 110% | 2000 nM |  | > 120% | 20 nM | modestly attenuated AMP-induced hyperactivity in mice; also recorded: attenuating the affect of d-amphetamine (AMP)
